ChEMBL document CHEMBL1135443, “Acyclic nucleoside analogues as novel inhibitors of human mitochondrial thymidine kinase” (J Med Chem, 2002)

Key:
[1] = biological target: Thymidine kinase 2, mitochondrial (Homo sapiens) (UniProt O00142)
[2] = test system: Thymidine kinase (Herpes simplex virus type 1); conditions: Human alphaherpesvirus 1

Chain of Thymidine kinase 2, mitochondrial (Homo sapiens) (O00142 whole entry, looked up): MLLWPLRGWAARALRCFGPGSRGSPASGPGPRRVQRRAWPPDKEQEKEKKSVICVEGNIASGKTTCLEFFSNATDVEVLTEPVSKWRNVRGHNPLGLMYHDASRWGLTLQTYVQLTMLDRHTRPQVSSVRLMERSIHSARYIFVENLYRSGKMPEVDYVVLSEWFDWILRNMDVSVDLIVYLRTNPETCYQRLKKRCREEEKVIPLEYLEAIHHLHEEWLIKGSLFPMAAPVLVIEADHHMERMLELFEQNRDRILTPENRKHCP

Row | SMILES | NEA [1] | NEA [2]
1 | Cc1cn(CC#CCOC(c2ccccc2)(c2ccccc2)c2ccccc2)c(=O)[nH]c1=O | Not estimated accurately | 
2 | Cc1cn(C/C=C\CO)c(=O)[nH]c1=O | Not estimated accurately | Not estimated accurately
3 | Nc1nc(O)c2ncn(C/C=C\COC(c3ccccc3)(c3ccccc3)c3ccccc3)c2n1 | Not estimated accurately | Not estimated accurately
4 | Cc1cn(Cc2ccccc2COC(c2ccccc2)(c2ccccc2)c2ccccc2)c(=O)[nH]c1=O | Not estimated accurately | Not estimated accurately
5 | COc1ccc(C(OC[C@H]2O[C@@H](n3cc(C)c(=O)[nH]c3=O)C[C@@H]2O)(c2ccccc2)c2ccc(OC)cc2)cc1 | Not estimated accurately | 
6 | Cc1cn(C/C=C\COC(c2ccccc2)(c2ccccc2)c2ccccc2)c(=O)n(C)c1=O | Not estimated accurately | Not estimated accurately
7 | Cc1cn(C/C=C\COC(c2ccccc2)(c2ccccc2)c2ccccc2)c(=O)nc1N | Not estimated accurately | Not estimated accurately
